# Measured values reported in US10577349B2 (Sanford Burnham Prebys Medical Discovery Institute, priority 2015, dated 2020).
# Experiments:
# A375 = test: 48 h Cytotoxicity A375; assay type: cell-based; conditions: Homo sapiens, A-375
# [1] = target: EmCV Cap-dependent translation; test: In vitro translation assay, FF-EmCV-Ren construct, cap-dependent (FF luciferase); assay type: biochemical, rabbit reticulocyte lysates
# Source text: (§1) The bicistronic dual-reporter constructs that contain the firefly luciferase (FF) sequence, followed by the (encephalomyocarditis virus) EmCV and Hepatitis C virus (HCV) IRES, respectively, and the Renilla reniformis (Ren) luciferase sequence, has been previously described (Bordeleau Me., et al. Functional characterization of IRESes by an inhibitor of the RNA helicase eIF4A. Nature chemical biology. 2006; 2:213-20). For measurement of translation from the FF-EmCV-Ren and FF-HCV-Ren constructs, rabbit reticulocyte lysates (RRL) (Life Technologies, Carlsbad, Calif., USA) and the Dual-Glo (Promega, Madison, Wis., USA) read-outs were chosen. Two μl rabbit reticulocyte lysates mixed with Translation Mix 20× (-Met) and Translation Mix 20× (-Leu) in a ratio of 1:1 were pre-incubated with test compounds in 1536-well plates for 1 h at room temperature. Then, translation was started by adding 0.1 μg RNA per well and incubated for 2 h at 30° C. After a short chill phase, 2.5 μl Dual-Glo reagent 1 was added to each well and incubated for 10 min before reading the FF luciferase activity with the ViewLux uHTS Microplate Imager (Perkin Elmer, Waltham, Mass., USA). Directly after, 2.5 μl Dual-Glo reagent 2 was dispensed to each well and incubated at room temperature for 10 min before reading the Ren luciferase activity on the ViewLux. To exclude the possibility that test compounds interfere with any of the luciferase activities, a counter assay was performed in which the compounds were added after the completion of the in vitro translation.
# [2] = target: EmCV Cap-independent translation; test: In vitro translation assay, FF-EmCV-Ren construct, cap-independent (Ren luciferase); assay type: biochemical, rabbit reticulocyte lysates
# Source text: as §1
# [3] = target: HCV cap-dependent translation; test: In vitro translation assay, FF-HCV-Ren construct, cap-dependent (FF luciferase); assay type: biochemical, rabbit reticulocyte lysates
# Source text: as §1
# [4] = target: HCV cap-independent translation; test: In vitro translation assay, FF-HCV-Ren construct, cap-independent (Ren luciferase); assay type: biochemical, rabbit reticulocyte lysates
# Source text: as §1
Compound,IC50 (A375) [µM],IC50 [1] [µM],IC50 [2] [µM],IC50 [3] [µM],IC50 [4] [µM]
"O=C(/C=C/c1cnccn1)c1c(-c2ccccc2)c2cc(Cl)ccc2[nH]c1=O [Compound 52, 6-Chloro-4-phenyl-3-(3-pyrazin-2-yl-acryloyl)-1H-quinolin-2-one]",2 to 10,2 to 10,2 to 10,10 to 20,2 to 10
"Cn1c(/C=C/C(=O)c2c(-c3ccccc3)c3cc(Cl)ccc3[nH]c2=O)nc2ccccc21 [Compound 53, 6-Chloro-3-[3-(1-methyl-1H-benzoimidazol-2-yl)-acryloyl]-4-phenyl-1H-quinolin-2-one]",2 to 10,2 to 10,2 to 10,2 to 10,2 to 10
"COc1ccc(Cn2c(/C=C/C(=O)c3c(-c4ccccc4)c4cc(Cl)ccc4[nH]c3=O)nc3cc(Cl)ccc32)cc1 [Compound 54, (E)-6-chloro-3-(3-(5-chloro-1-(4-methoxybenzyl)-1H-benzo[d]imidazol-2-yl)acryloyl)-4-phenylquinolin-2(1H)-one]",2 to 10,2 to 10,2 to 10,2 to 10,2 to 10
"O=C(/C=C/c1nc2ccccc2n1Cc1ccccc1)c1c(-c2ccccc2)c2cc(Cl)ccc2[nH]c1=O [Compound 55, 3-[3-(1-Benzyl-1H-benzoimidazol-2-yl)-acryloyl]-6-chloro-4-phenyl-1H-quinolin-2-one]",2 to 10,2 to 10,2 to 10,2 to 10,2 to 10
"O=C(/C=C/c1nc2ccccc2n1Cc1ccccc1)c1c(-c2ccccc2)c2cc(Cl)ccc2n(Cc2ccccc2)c1=O [Compound 56, 1-benzyl-3-[3-(1-benzyl-1H-benzoimidazol-2-yl)-acryloyl]-6-chloro-4-phenyl-1H-quinolin-2-one]",2 to 10,2 to 10,> 20,10 to 20,2 to 10
"COCCn1c(/C=C/C(=O)c2c(-c3ccccc3)c3cc(Cl)ccc3[nH]c2=O)nc2ccccc21 [Compound 57, 6-Chloro-3-{3-[1-(2-methoxy-ethyl)-1H-benzoimidazol-2-yl]-acryloyl}-4-phenyl-1H-quinolin-2-one]",2 to 10,2 to 10,2 to 10,2 to 10,2 to 10
"CCn1c(/C=C/C(=O)c2c(-c3ccccc3)c3cc(Cl)ccc3[nH]c2=O)nc2ccccc21 [Compound 58, 6-Chloro-3-[3-(1-ethyl-1H-benzoimidazol-2-yl)-acryloyl]-4-phenyl-1H-quinolin-2-one]",2 to 10,2 to 10,2 to 10,2 to 10,2 to 10
"Cn1c(/C=C/C(=O)c2c(-c3ccccc3)c3cc(Cl)ccc3n(C)c2=O)nc2ccccc21 [Compound 59, 6-Chloro-1-methyl-3-[3-(1-methyl-1H-benzoimidazol-2-yl)-acryloyl]-4-phenyl-1H-quinolin-2-one]",2 to 10,2 to 10,2 to 10,2 to 10,2 to 10
"CCn1c(/C=C/C(=O)c2c(-c3ccccc3)c3cc(Cl)ccc3n(CC)c2=O)nc2ccccc21 [Compound 60, (E)-6-chloro-1-ethyl-3-(3-(1-ethyl-1H-benzo[d]imidazol-2-yl)acryloyl)-4-phenylquinolin-2(1H)-one]",2 to 10,> 20,> 20,10 to 20,10 to 20
"O=C(/C=C/c1nc2cc(Cl)c(Cl)cc2[nH]1)c1c(-c2ccccc2)c2cc(Cl)ccc2[nH]c1=O [Compound 63, 6-Chloro-3-[3-(5,6-dichloro-1H-benzoimidazol-2-yl)-acryloyl]-4-phenyl-1H-quinolin-2-one]",2 to 10,2 to 10,2 to 10,2 to 10,2 to 10
"CCn1c(/C=C/C(=O)c2c(-c3ccccc3)c3cc(Cl)ccc3[nH]c2=O)nc2cc(Cl)c(Cl)cc21 [Compound 64, 6-Chloro-3-[3-(5,6-dichloro-1-ethyl-1H-benzoimidazol-2-yl)-acryloyl]-4-phenyl-1H-quinolin-2-one]",2 to 10,2 to 10,10 to 20,10 to 20,> 20
"COc1ccc2[nH]c(/C=C/C(=O)c3c(-c4ccccc4)c4cc(Cl)ccc4[nH]c3=O)nc2c1 [Compound 65, 6-Chloro-3-[3-(5-methoxy-1H-benzoimidazol-2-yl)-acryloyl]-4-phenyl-1H-quinolin-2-one]",< 2,2 to 10,2 to 10,2 to 10,2 to 10
"COc1cncc(/C=C/C(=O)c2c(-c3ccccc3)c3cc(Cl)ccc3[nH]c2=O)c1 [Compound 66, 3-[(2E)-3-(5-methoxy(3-pyridyl))prop-2-enoyl]-6-chloro-4-phenylhydroquinolin-2-one]",< 2,2 to 10,2 to 10,2 to 10,2 to 10
"O=C(CCc1cncc(F)c1)c1c(-c2ccccc2)c2cc(Cl)ccc2[nH]c1=O [Compound 67, 6-Chloro-3-[3-(5-fluoro(3-pyridyl))propanoyl]-4-phenylhydroquinolin-2-one]",> 20,> 20,> 20,> 20,> 20
"O=C(CCc1nc2ccccc2[nH]1)c1c(-c2ccccc2)c2cc(Cl)ccc2[nH]c1=O [Compound 68, 3-(3-1H-Benzoimidazol-2-yl-propionyl)-6-chloro-4-phenyl-1H-quinolin-2-one]",> 20,> 20,> 20,> 20,> 20
"Cc1ccnc(/C=C/C(=O)c2c(-c3ccccc3)c3cc(Cl)ccc3[nH]c2=O)c1 [Compound 70, 3-[(2E)-3-(4-methyl(2-pyridyl))prop-2-enoyl]-6-chloro-4-phenylhydroquinolin-2-one]",2 to 10,2 to 10,2 to 10,2 to 10,2 to 10
"O=C(/C=C/c1cc(Cl)ccn1)c1c(-c2ccccc2)c2cc(Cl)ccc2[nH]c1=O [Compound 71, 3-[(2E)-3-(4-chloro(2-pyridyl))prop-2-enoyl]-6-chloro-4-phenylhydroquinolin-2-one]",2 to 10,> 20,> 20,10 to 20,> 20
"N#Cc1cncc(/C=C/C(=O)c2c(-c3ccccc3)c3cc(Cl)ccc3[nH]c2=O)c1 [Compound 72, 5-[(1E)-3-(6-chloro-2-oxo-4-phenyl(3-hydroquinolyl))-3-oxoprop-1-enyl]pyridine-3-carbonitrile]",< 2,2 to 10,2 to 10,2 to 10,2 to 10
"COCc1cncc(/C=C/C(=O)c2c(-c3ccccc3)c3cc(Cl)ccc3[nH]c2=O)c1 [Compound 73, 3-{(2E)-3-[5-(methoxymethyl)(3-pyridyl)]prop-2-enoyl}-6-chloro-4-phenylhydroquinolin-2-one]",< 2,2 to 10,2 to 10,2 to 10,2 to 10
"Cc1cncc(/C=C/C(=O)c2c(-c3ccccc3)c3cc(Cl)ccc3[nH]c2=O)c1 [Compound 74, 3-[(2E)-3-(5-methyl(3-pyridyl))prop-2-enoyl]-6-chloro-4-phenylhydroquinolin-2-one]",< 2,2 to 10,2 to 10,2 to 10,2 to 10
"COc1ccnc(/C=C/C(=O)c2c(-c3ccccc3)c3cc(Cl)ccc3[nH]c2=O)c1 [Compound 75, 3-[(2E)-3-(4-methoxy(2-pyridyl))prop-2-enoyl]-6-chloro-4-phenylhydroquinolin-2-one]",< 2,2 to 10,2 to 10,2 to 10,2 to 10
"O=C(/C=C/c1cncc(C(F)(F)F)c1)c1c(-c2ccccc2)c2cc(Cl)ccc2[nH]c1=O [Compound 76, 3-{(2E)-3-[5-(trifluoromethyl)(3-pyridyl)]prop-2-enoyl}-6-chloro-4-phenylhydroquinolin-2-one]",< 2,2 to 10,2 to 10,2 to 10,2 to 10
"O=C(/C=C/c1cncc(F)c1)c1c(-c2ccc(F)cc2)c2cc(Cl)ccc2[nH]c1=O [Compound 77, 3-[(2E)-3-(5-fluoro(3-pyridyl))prop-2-enoyl]-6-chloro-4-(4-fluorophenyl)hydroquinolin-2-one]",< 2,2 to 10,2 to 10,2 to 10,2 to 10
"O=C(/C=C/c1ccccn1)c1c(-c2ccc(F)cc2)c2cc(Cl)ccc2[nH]c1=O [Compound 78, (E)-6-Chloro-4-(4-fluoro-phenyl)-3-(3-pyridin-2-yl-acryloyl)-1H-quinolin-2-one]",< 2,2 to 10,2 to 10,2 to 10,2 to 10
